“And” between values parts separate entries of the source, which are not always exact repeats. Identical values can stand only once. Results filed as inconclusive are left out.
Test system: BDF1 mice, colon carcinoma 38 sc, T/C %
Test: NCI In Vivo Anticancer Drug Screen. Data for tumor model Colon Carcinoma 38 (subcutaneous) in B6D2F1 (BDF1) mice
Conditions: endpoint: median tumor weight (est.), higher = larger tumour
Outline: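 T/C readout: treated group (T) measurement over vehicle control group (C) measurement. Endpoint is survival or tumor size in mice bearing a transplanted tumor.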

For `Cc1cn(C2CC(O)C(CO)O2)c(=O)[nH]c1=O` (configuration not stated), the T/C (dose: 25.0 mg/kg/injection, schedule: Q07DX003 (ip), vehicle: saline) was 54 % of control and 79 % of control, the T/C (dose: 50.0 mg/kg/injection, schedule: Q03HX024 (ip), vehicle: saline) was 95 % of control and the T/C (dose: 50.0 mg/kg/injection, schedule: Q07DX003 (ip), vehicle: saline) was 76 % of control. For the same compound, the T/C (dose: 100.0 mg/kg/injection, schedule: Q03HX024 (ip), vehicle: saline) was 98 % of control, the T/C (dose: 200.0 mg/kg/injection, schedule: Q03HX024 (ip), vehicle: saline) was 66 % of control and the T/C (dose: 200.0 mg/kg/injection, schedule: Q07DX003 (ip), vehicle: saline) was 90 % of control. The T/C (dose: 400.0 mg/kg/injection, schedule: Q03HX024 (ip), vehicle: saline) was 122 % of control and the T/C (dose: 400.0 mg/kg/injection, schedule: Q07DX003 (ip), vehicle: saline) was 89 % of control and 101 % of control.

In the case of `C=C1CCOC2(C(O)C(C)(O)CO)NC(=O)C1(O)NC2=O` (configuration not stated), the T/C (dose: 225.0 mg/kg/injection, schedule: Q07DX002 (ip), vehicle: saline) is reported as 104 % of control, the T/C (dose: 450.0 mg/kg/injection, schedule: Q07DX002 (ip), vehicle: saline) is reported as 74 % of control and the T/C (dose: 900.0 mg/kg/injection, schedule: Q07DX002 (ip), vehicle: saline) is reported as 81 % of control. For the same compound, the T/C (dose: 1800.0 mg/kg/injection, schedule: Q07DX002 (ip), vehicle: saline) was 46 % of control.

`COc1cc(NS(C)(=O)=O)ccc1Nc1c2ccccc2nc2ccccc12` was tested, and the T/C (dose: 0.5 mg/kg/injection, schedule: Q07DX003 (ip), vehicle: other) was 68 % of control, the T/C (dose: 1.0 mg/kg/injection, schedule: Q07DX002 (ip), vehicle: other) was 93 % of control and the T/C (dose: 1.0 mg/kg/injection, schedule: Q07DX003 (ip), vehicle: other) was 88 % of control. For the same compound, the T/C (dose: 2.0 mg/kg/injection, schedule: Q07DX003 (ip), vehicle: other) was 42 % of control, the T/C (dose: 4.0 mg/kg/injection, schedule: Q07DX002 (ip), vehicle: other) was 78 % of control and 91 % of control and the T/C (dose: 4.0 mg/kg/injection, schedule: Q07DX003 (ip), vehicle: other) was 56 % of control. For the same compound, the T/C (dose: 8.0 mg/kg/injection, schedule: Q07DX003 (ip), vehicle: other) was 47 % of control.

For `Cn1cnc([N+](=O)[O-])c1[Se]c1nc(N)nc2nc[nH]c12`, the T/C (dose: 3.12 mg/kg/injection, schedule: Q07DX002 (ip), vehicle: water) was 62 % of control, the T/C (dose: 6.25 mg/kg/injection, schedule: Q07DX002 (ip), vehicle: water) was 36 % of control and the T/C (dose: 12.5 mg/kg/injection, schedule: Q07DX002 (ip), vehicle: water) was 87 % of control. The T/C (dose: 25.0 mg/kg/injection, schedule: Q07DX002 (ip), vehicle: water) was 73 % of control, the T/C (dose: 50.0 mg/kg/injection, schedule: Q07DX002 (ip), vehicle: water) was 54 % of control and the T/C (dose: 100.0 mg/kg/injection, schedule: Q07DX002 (ip), vehicle: water) was 57 % of control.

`Cc1ccc(S(=O)(=O)NC(=S)S)cc1` was tested, and the T/C (dose: 12.5 mg/kg/injection, schedule: Q07DX002 (ip), vehicle: saline with Tween-80) was 108 % of control, the T/C (dose: 25.0 mg/kg/injection, schedule: Q07DX002 (ip), vehicle: saline with Tween-80) was 54 % of control and the T/C (dose: 50.0 mg/kg/injection, schedule: Q07DX002 (ip), vehicle: saline with Tween-80) was 116 % of control. The T/C (dose: 100.0 mg/kg/injection, schedule: Q07DX002 (ip), vehicle: saline with Tween-80) was 100 % of control and the T/C (dose: 200.0 mg/kg/injection, schedule: Q07DX002 (ip), vehicle: saline with Tween-80) was 60 % of control.

In the case of `O=c1[nH]c(=O)n([C@H]2CCCO2)cc1F`, the T/C (dose: 40.0 mg/kg/injection, schedule: Q07DX003 (ip), vehicle: Klucel (hydroxypropylcellulose) (HPC)) is reported as 166 % of control, the T/C (dose: 80.0 mg/kg/injection, schedule: Q07DX003 (ip), vehicle: Klucel (hydroxypropylcellulose) (HPC)) is reported as 116 % of control and the T/C (dose: 160.0 mg/kg/injection, schedule: Q07DX003 (ip), vehicle: Klucel (hydroxypropylcellulose) (HPC)) is reported as 57 % of control. For the same compound, the T/C (dose: 320.0 mg/kg/injection, schedule: Q07DX003 (ip), vehicle: Klucel (hydroxypropylcellulose) (HPC)) was 25 % of control.

For `O=C(O)c1ccc(C(=O)O)c(C(=O)O)c1.[NH-]C1CCCCC1[NH-].[Pt+2]`, the T/C (dose: 1.56 mg/kg/injection, schedule: Q07DX002 (ip), vehicle: sodium bicarbonate) was 110 % of control, the T/C (dose: 3.12 mg/kg/injection, schedule: Q07DX002 (ip), vehicle: sodium bicarbonate) was 124 % of control and the T/C (dose: 3.12 mg/kg/injection, schedule: Q07DX003 (ip), vehicle: sodium bicarbonate) was 20 % of control. The T/C (dose: 6.25 mg/kg/injection, schedule: Q07DX002 (ip), vehicle: sodium bicarbonate) was 70 % of control, the T/C (dose: 6.25 mg/kg/injection, schedule: Q07DX003 (ip), vehicle: sodium bicarbonate) was 24 % of control and the T/C (dose: 12.5 mg/kg/injection, schedule: Q07DX003 (ip), vehicle: sodium bicarbonate) was 10 % of control. The T/C (dose: 25.0 mg/kg/injection, schedule: Q07DX002 (ip), vehicle: sodium bicarbonate) was 20 % of control and 36 % of control and 44 % of control and the T/C (dose: 50.0 mg/kg/injection, schedule: Q07DX002 (ip), vehicle: sodium bicarbonate) was 33 % of control.

From PubChem BioAssay AID212 (DTP/NCI, 2004)
